Read-outs that look alike come from different tables or passages of the source.
Tests used:
Type in all cases: cell-based
[1] = target: hGLP-1R (Homo sapiens, UniProt P43220); experiment: Functional cAMP formation (HTRF) in HEK-293 clonal cells expressing hGLP-1R, 0.1% bovine casein, without or with 1.0% human serum albumin; set-up: expressed in transfected cells
Summary of the method: (§1)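 Readings of the HTRF 665/620 nm ratio, which falls as cAMP rises, were converted to nM cAMP using a standard curve after 30 min peptide exposure at 37° C.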

[2] = target: T1, hGIPR (Homo sapiens, UniProt P48546); experiment: Functional cAMP formation (HTRF) in HEK-293 clonal cells expressing hGIPR, 0.1% bovine casein, without or with 1.0% human serum albumin; conditions: for EC50: geometric mean
T1 construct: expressed in transfected cells
T1 sequence (P48546 22-466): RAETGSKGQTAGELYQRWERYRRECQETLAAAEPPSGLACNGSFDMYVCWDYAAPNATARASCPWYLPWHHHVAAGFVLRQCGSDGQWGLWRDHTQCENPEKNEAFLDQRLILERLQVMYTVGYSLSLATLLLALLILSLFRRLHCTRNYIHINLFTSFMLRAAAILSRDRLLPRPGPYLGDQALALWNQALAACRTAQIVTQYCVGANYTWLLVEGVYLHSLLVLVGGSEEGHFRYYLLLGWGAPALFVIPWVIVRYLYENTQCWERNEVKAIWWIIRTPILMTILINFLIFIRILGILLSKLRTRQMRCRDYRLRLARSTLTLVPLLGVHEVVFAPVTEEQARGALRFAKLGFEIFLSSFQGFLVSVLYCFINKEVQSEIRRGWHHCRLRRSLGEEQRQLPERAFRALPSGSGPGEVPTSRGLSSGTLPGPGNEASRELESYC
Summary of the method: as §1

[3] = target: T2, hGCGR (Homo sapiens, UniProt P47871); experiment: Functional cAMP formation (HTRF) in HEK-293 clonal cells expressing hGCGR, 0.1% bovine casein, without or with 1.0% human serum albumin
T2 construct: expressed in transfected cells
T2 sequence (P47871 26-477): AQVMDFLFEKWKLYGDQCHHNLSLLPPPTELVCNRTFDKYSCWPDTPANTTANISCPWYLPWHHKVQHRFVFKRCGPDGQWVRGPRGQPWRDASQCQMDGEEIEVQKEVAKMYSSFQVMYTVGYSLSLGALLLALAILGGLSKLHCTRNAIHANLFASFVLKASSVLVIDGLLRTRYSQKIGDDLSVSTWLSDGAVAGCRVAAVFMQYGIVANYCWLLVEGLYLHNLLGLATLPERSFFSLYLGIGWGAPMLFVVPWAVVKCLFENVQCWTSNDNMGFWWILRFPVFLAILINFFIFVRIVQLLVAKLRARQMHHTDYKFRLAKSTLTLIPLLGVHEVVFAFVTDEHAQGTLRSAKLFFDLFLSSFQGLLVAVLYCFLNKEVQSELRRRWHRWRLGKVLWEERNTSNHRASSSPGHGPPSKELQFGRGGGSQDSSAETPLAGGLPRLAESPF
Summary of the method: as §1

[4] = HEK293, read-out: hGLP-1R Emax, % ± SEM, cAMP, 37° C., 0.1% bovine casein, percent of maximal response to GLP-1(7-36)NH2, arithmetic mean
[5] = hGLP-1R EC50, nM (SEM, n), cAMP, 37° C., 0.1% bovine casein (no human serum albumin), geometric mean
[6] = HEK293, read-out: hGIPR Emax, % ± SEM, cAMP, 37° C., 0.1% bovine casein, percent of maximal response to GIP(1-42)NH2, arithmetic mean
[7] = hGIPR EC50, nM (SEM, n), cAMP, 37° C., 0.1% bovine casein (no human serum albumin)
[8] = hGCGR EC50, nM (SEM, n), cAMP, 37° C., 0.1% bovine casein (no human serum albumin), geometric mean
[9] = cAMP, incubated at 37° C., 0.1% bovine casein (no human serum albumin), read-out: hGIPR EC50, nM (SEM, n)
[10] = cAMP, incubated at 37° C., 0.1% bovine casein (no human serum albumin), geometric mean, read-out: hGCGR EC50, nM (SEM, n)

Chain of hGLP-1R (P43220 24-463): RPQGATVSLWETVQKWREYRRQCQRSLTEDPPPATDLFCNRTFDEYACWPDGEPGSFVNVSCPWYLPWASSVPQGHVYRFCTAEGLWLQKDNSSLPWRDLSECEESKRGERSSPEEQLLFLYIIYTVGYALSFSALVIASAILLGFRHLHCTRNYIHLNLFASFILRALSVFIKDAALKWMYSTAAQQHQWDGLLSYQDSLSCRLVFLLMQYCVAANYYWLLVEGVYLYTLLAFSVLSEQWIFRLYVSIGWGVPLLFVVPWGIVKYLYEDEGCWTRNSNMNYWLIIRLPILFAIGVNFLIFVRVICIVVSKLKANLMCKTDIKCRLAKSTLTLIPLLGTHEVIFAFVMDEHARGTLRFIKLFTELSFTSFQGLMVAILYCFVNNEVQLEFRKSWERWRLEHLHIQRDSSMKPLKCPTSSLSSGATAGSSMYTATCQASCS

SMILES | Emax [1, 4] [%] | EC50 [1, 5] [nM] | Emax [2, 6] [%] | EC50 [2, 7] [nM] | EC50 [3, 8] [nM] | EC50 [2, 9] [nM] | EC50 [3, 10] [nM] | further results
CC[C@H](C)[C@H](NC(=O)[C@H](CC(C)C)NC(=O)[C@](C)(Cc1ccc(O)cc1)NC(=O)[C@@H](CCC(=O)O)NC(=O)[C@@H](NC(=O)[C@H](Cc1ccccc1)NC(=O)[C@H](CCCCNC(=O)COCCOCCNC(=O)COCCOCCNC(=O)CCCCCCCCCOc1ccc(C(=O)O)cc1)NC(=O)C(C)(C)NC(=O)[C@H](CCC(N)=O)NC(=O)[C@H](C)NC(=O)[C@H](CCCCNC(=O)COCCOCCNC(=O)COCCOCCNC(=O)CCCCCCCCCOc1ccc(C(=O)O)cc1)NC(=O)[C@H](CCCN)NC(=O)[C@H](CC(=O)O)NC(=O)[C@H](CC(C)C)NC(=O)[C@](C)(CC(C)C)NC(=O)[C@@H](NC(=O)C(C)(C)NC(=O)[C@H](Cc1ccc(O)cc1)NC(=O)[C@H](CC(=O)O)NC(=O)[C@H](CO)NC(=O)[C@@H](NC(=O)[C@](C)(Cc1ccccc1F)NC(=O)[C@@H](NC(=O)CNC(=O)[C@H](CCC(=O)O)NC(=O)C(C)(C)NC(=O)[C@@H](N)Cc1ccc(O)cc1)[C@@H](C)O)[C@@H](C)O)[C@@H](C)CC)[C@@H](C)CC)C(=O)N[C@@H](CCC(=O)O)C(=O)NCC(=O)NCC(=O)N1CCC[C@H]1C(=O)N[C@@H](CO)C(=O)N[C@@H](CO)C(=O)NCC(=O)N[C@@H](C)C(=O)N1CCC[C@H]1C(=O)N1CCC[C@H]1C(=O)N1CCC[C@H]1C(=O)N[C@@H](CO)C(N)=O [Example 393] | 96.8 | 0.372 | 94.3 | 0.0115 | > 9950 | – | – | EC50 ([1]; hGLP-1R EC50, nM (SEM, n), cAMP, 37° C., 0.1% bovine casein and 1.0% human serum albumin, geometric mean (SEM, n)): 9.18 nM; Emax ([2]; HEK293, read-out: hGIPR Emax, % ± SEM, cAMP, 37° C., 0.1% bovine casein and 1.0% human serum albumin, percent of maximal response to GIP(1-42)NH2): 66.7%; EC50 ([3]; hGCGR EC50, nM (SEM, n), cAMP, 37° C., 0.1% bovine casein and 1.0% human serum albumin, geometric mean (SEM, n)): > 9950 nM
CC[C@H](C)[C@H](NC(=O)[C@H](CCCN)NC(=O)[C@H](CC(=O)O)NC(=O)[C@H](CC(C)C)NC(=O)[C@](C)(CC(C)C)NC(=O)[C@@H](NC(=O)[C@H](CO)NC(=O)[C@H](Cc1ccc2ccccc2c1)NC(=O)[C@H](CC(=O)O)NC(=O)[C@H](CO)NC(=O)[C@@H](NC(=O)[C@](C)(Cc1ccccc1F)NC(=O)[C@@H](NC(=O)CNC(=O)[C@H](CCC(=O)O)NC(=O)C(C)(C)NC(=O)[C@@H](N)Cc1ccc(O)cc1)[C@@H](C)O)[C@@H](C)O)[C@@H](C)CC)C(=O)N[C@@H](C)C(=O)N[C@@H](CCC(N)=O)C(=O)NC(C)(C)C(=O)N[C@@H](CCCCNC(=O)COCCOCCNC(=O)COCCOCCNC(=O)CC[C@H](NC(=O)CCCCCCCCCOc1ccc(C(=O)O)cc1)C(=O)O)C(=O)N[C@@H](Cc1ccccc1)C(=O)N[C@H](C(=O)N[C@H](CCC(=O)O)C(=O)N[C@@](C)(Cc1ccc(O)cc1)C(=O)N[C@@H](CC(C)C)C(=O)N[C@H](C(=O)N[C@@H](CCCCNC(=O)COCCOCCNC(=O)COCCOCCNC(=O)CC[C@H](NC(=O)CCCCCCCCCOc1ccc(C(=O)O)cc1)C(=O)O)C(=O)NCC(=O)NCC(=O)N1CCC[C@H]1C(=O)N[C@@H](CO)C(=O)N[C@@H](CO)C(=O)NCC(=O)N[C@@H](C)C(=O)N1CCC[C@H]1C(=O)N1CCC[C@H]1C(=O)N1CCC[C@H]1C(=O)N[C@@H](CO)C(N)=O)[C@@H](C)CC)[C@@H](C)CC [Example 284] | 110 | 0.505 | 98.3 | 0.0389 | > 9950 | – | – | Emax ([1]; HEK293, read-out: hGLP-1R Emax, % ± SEM, 0.1% bovine casein and 1.0% human serum albumin, 37° C., percent of maximal response to GLP-1(7-36)NH2): 112%; EC50 ([3]; hGCGR EC50, nM (SEM, n), 0.1% bovine casein and 1.0% human serum albumin, 37° C., geometric mean): > 9950 nM
CC[C@H](C)[C@H](NC(=O)[C@H](CC(C)C)NC(=O)[C@](C)(Cc1ccc(O)cc1)NC(=O)[C@@H](CCC(=O)O)NC(=O)[C@@H](NC(=O)[C@H](Cc1ccccc1)NC(=O)[C@H](CCC(=O)O)NC(=O)C(C)(C)NC(=O)[C@H](CCC(N)=O)NC(=O)[C@H](C)NC(=O)[C@H](CCCCNC(=O)COCCOCCNC(=O)COCCOCCNC(=O)CC[C@H](NC(=O)CCCc1ccc(C(C)(C)C)cc1)C(=O)O)NC(=O)[C@H](CCCN)NC(=O)[C@H](CC(=O)O)NC(=O)[C@H](CC(C)C)NC(=O)[C@](C)(CC(C)C)NC(=O)[C@@H](NC(=O)[C@H](CO)NC(=O)[C@H](Cc1ccncc1)NC(=O)[C@H](CC(=O)O)NC(=O)[C@H](CO)NC(=O)[C@@H](NC(=O)[C@](C)(Cc1ccccc1F)NC(=O)[C@@H](NC(=O)CNC(=O)[C@H](CCC(=O)O)NC(=O)C(C)(C)NC(=O)[C@@H](N)Cc1ccc(O)cc1)[C@@H](C)O)[C@@H](C)O)[C@@H](C)CC)[C@@H](C)CC)C(=O)N[C@@H](CCCCNC(=O)COCCOCCNC(=O)COCCOCCNC(=O)CC[C@H](NC(=O)CCCc1ccc(C(C)(C)C)cc1)C(=O)O)C(=O)NCC(=O)NCC(=O)N1CCC[C@H]1C(=O)N[C@@H](CO)C(=O)N[C@@H](CO)C(=O)NCC(=O)N[C@@H](C)C(=O)N1CCC[C@H]1C(=O)N1CCC[C@H]1C(=O)N1CCC[C@H]1C(=O)N[C@@H](CO)C(N)=O [Example 133] | – | – | – | – | – | 0.018 | > 9950 | EC50 ([1]; 0.1% bovine casein and 1.0% human serum albumin, 37° C., geometric mean, read-out: hGLP-1R EC50, nM (SEM, n)): 1.17 nM; EC50 ([2]; 0.1% bovine casein and 1.0% human serum albumin, 37° C., read-out: hGIPR EC50, nM (SEM, n)): 0.0695 nM; Emax ([2]; HEK293, 0.1% bovine casein and 1.0% human serum albumin, 37° C., percent of maximal response to GIP(1-42)NH2, read-out: hGIPR Emax, % ± SEM): 89.1 ± 4.64%; EC50 ([3]; 0.1% bovine casein and 1.0% human serum albumin, 37° C., geometric mean, read-out: hGCGR EC50, nM (SEM, n)): > 9950 nM
CC[C@H](C)[C@H](NC(=O)[C@H](CC(C)C)NC(=O)[C@](C)(Cc1ccc(O)cc1)NC(=O)[C@@H](CCC(=O)O)NC(=O)[C@@H](NC(=O)[C@H](Cc1ccccc1)NC(=O)[C@H](CCCCNC(=O)COCCOCCNC(=O)COCCOCCNC(=O)COCCOCCNC(=O)CC[C@H](NC(=O)CCCCCCCCCCCCC(=O)O)C(=O)O)NC(=O)C(C)(C)NC(=O)[C@H](CCC(N)=O)NC(=O)[C@H](C)NC(=O)[C@H](CCCCNC(=O)COCCOCCNC(=O)COCCOCCNC(=O)COCCOCCNC(=O)CC[C@H](NC(=O)CCCCCCCCCCCCC(=O)O)C(=O)O)NC(=O)[C@H](CCCN)NC(=O)[C@H](CC(=O)O)NC(=O)[C@H](CC(C)C)NC(=O)[C@](C)(CC(C)C)NC(=O)[C@@H](NC(=O)[C@H](CO)NC(=O)[C@H](Cc1ccncc1)NC(=O)[C@H](CC(=O)O)NC(=O)[C@H](CO)NC(=O)[C@@H](NC(=O)[C@](C)(Cc1ccccc1F)NC(=O)[C@@H](NC(=O)CNC(=O)[C@H](CCC(=O)O)NC(=O)C(C)(C)NC(=O)[C@@H](N)Cc1ccc(O)cc1)[C@@H](C)O)[C@@H](C)O)[C@@H](C)CC)[C@@H](C)CC)C(=O)N[C@@H](CCC(=O)O)C(=O)NCC(=O)NCC(=O)N1CCC[C@H]1C(=O)N[C@@H](CO)C(=O)N[C@@H](CO)C(=O)NCC(=O)N[C@@H](C)C(=O)N1CCC[C@H]1C(=O)N1CCC[C@H]1C(=O)N1CCC[C@H]1C(=O)N[C@@H](CO)C(N)=O [Example 77] | – | – | – | – | – | 0.0288 | > 9950 | Emax ([1]; HEK293, percent of maximal response to GLP-1(7-36)NH2, 37° C., 0.1% bovine casein, arithmetic mean, read-out: hGLP-1R Emax, % ± SEM): 87 ± 1.71%; EC50 ([1]; cAMP, incubated at 37° C., 0.1% bovine casein (no human serum albumin), geometric mean, read-out: hGLP-1R EC50, nM (SEM, n)): 3.03 nM; Emax ([2]; HEK293, percent of maximal response to GIP(1-42)NH2, 37° C., 0.1% bovine casein, arithmetic mean, read-out: hGIPR Emax, % ± SEM): 94.8 ± 2.69%
